Laboratory results as given in US20230098403A1, “MAGNETIC RESONANCE IMAGING CONTRAST AGENT, PREPARATION METHOD AND USE THEREOF” (GUANGZHOU PINGLAN MEDICAL TECHNOLOGY CO., LTD., priority 2020, published 2023).

Columns and labels:
[1] = Relaxivity measurement (T1 and T2 relaxation, MRI Contrast Agent Analyzer); type: physicochemical; conditions: 0.5 T, 32° C., pH=7.4
Description: The method for measuring the relaxivity comprises the following steps: preparing contrast agent solutions in a gradient concentration (0.054, 0.109, 0.224, 0.451, 0.906 mM, in Hepes buffer, pH=7.4), and measuring the contrast agent samples at different concentrations by Niumag PQ001 MRI Contrast Agent Analyzer (0.5±0.08T, main frequency of instrument: 21.3 MHz; at 32° C.) to respectively obtain their T1 and T2 relaxation time, and then performing a linear fitting between the relaxation rate, Ri (Ri=1/Ti, i=1, 2) and the contrast agent concentrations to obtain a slope, i.e., relaxivity (ri, i=1, 2). Relaxivity reflects the ability of magnetic resonance imaging contrast agent to alter the relaxation time of water proton and is an important parameter to evaluate the quality of contrast agent. Relaxivity (ri, i=1, 2) is defined as the alteration in the relaxation rate of water proton (1/Ti, i=1, 2) by unit concentration of MRI Contrast agent (mmol/L).

[2] = Excretion kinetics test, Mn^2+ in urine and bile by ICP-MS; type: in vivo, SD rats; conditions: tail vein 0.1 mmol/kg; for Bile: Mn^2+ excretion amount / Bile: cumulative Mn^2+ excretion amount / Bile: cumulative Mn^2+ excretion rate / Urine: Mn^2+ excretion amount / Urine: cumulative Mn^2+ excretion amount / Urine: cumulative Mn^2+ excretion rate: SD rats, n = 7
Description: Clean grade Sprague Dawley (SD) rats, 5 males and 3 females, weighing 250±50 g, were purchased from the Animal Experimental Center of North Sichuan Medical College, fasted for 12-16 h before the experiment and anesthetized by intraperitoneal injection of 3% sodium pentobarbital (40 mg/kg).
The rat tail was soaked in hot water at about 40° C. for about 1 minute, and it was wiped and sterilized by a cotton ball dipped in alcohol followed by fixing and stretching the tip of the tail with left thumb and middle finger, and flatting with the index finger. The tail vein was located at both sides of the tail and was light cyan in color. Air in an indwelling needle was removed with normal saline, and the indwelling needle was inserted into the vein at an angle of 15° to the vein. When blood was returned, the indwelling needle was pushed forward after insertion. Then the indwelling needle was fixed on the tail of the rat, and normal saline was injected at a rate of about 2 mL/h.
After sterilization, a longitudinal incision was made in the middle of the abdomen of rats below the xiphoid, by incising the skin, subcutaneous tissue, linea alba, and peritoneum layer by layer into the abdomen. A forcep was used for opening the left and right lobes of the liver, below which the duodenum and omentum were exposed. The transverse part of the duodenum was stretched with the forcep in the middle, and the pale yellow biliary tract was covered by the omentum and extended from the subhepatic portion to the duodenum. The biliary tract was bluntly dissected out, picked out with a glass pick, and a venous indwelling needle was inserted near the duodenum, fixed with a hemostatic clip, and bile was collected as a pre-dose sample.
A longitudinal incision was made at 0.5 cm above the urethral orifice of rats, and the skin was incised and the muscles were bluntly separated. After the bladder was filled to a certain extent, the bladder was lifted by the left hand with a tweezer, and the venous indwelling needle was held by the right hand and was obliquely inserted into the bladder toward the top, along the opening of ureter on the dorsal lateral side of the bladder, and the needle was removed to collect urine as a pre-dose sample.
After collecting pre-dose bile and urine samples, the drug was rapidly administered in the tail vein at a dose of 0.1 mmol/kg.
The hourly biliary excretion amount and hourly urinary excretion amount were collected after drug administration; the samples were weighed and frozen at −20° C.
[…] of the sample (bile and urine) was diluted to 6 to 10 ml with 1% HNO3 to make the concentrations of Mn^2+ in the range of 1 to 1000 ppb. The concentrations of Mn^2+ in the samples solution were numbered and detected. The Mn^2+ concentrations in the sample solutions were calculated according to the response intensity and standard curve.
Origin 9.0 was used for calculating data and drawing. The excretion amount during the period was obtained by multiplying the dilution ratio, measurement concentration and urine (bile) volume. The excretion amount during each period was compared with the dosage of administration to obtain the percentage of cumulative drug excretion amount during the corresponding time period.

[3] = In vivo imaging in rats (3.0 T MRI); conditions: SD rats, 0.2 mmol/kg tail vein
Description: 1. Sixteen SD rats were divided into a KBR0826 contrast agent group (experimental group) and a gadoteric acid meglumine (Gd-DOTA) contrast agent group (control group), with 8 rats in each group, fasted for 12 hours (drank water freely).
2. 3% sodium pentobarbital (60 to 70 mg/kg) was weighed for intraperitoneal anesthesia.
3. The dosage of KBR0826 was 0.2 mmol/kg. SD rats were imaged in vivo with a 3.0 T MRI imager. Contrast agents were injected into the tail vein. The signal intensities (SI) of the heart, liver, brain parenchyma, muscle, and abdominal aorta in rats were measured before and after injection, and signal to noise ratio (SNR) was calculated and time-signal intensity curve was drawn to evaluate the imaging effect of the contrast agents.

O=C([O-])CN(CP(=O)([O-])O)C1CCCCC1N(CC(=O)[O-])CP(=O)([O-])O.[Mn+2].[Na+].[Na+] (centres unmarked) [KBR0826]
relaxivity r1 [1]: 3.12 mmol⁻¹ s⁻¹
Bile: Mn^2+ excretion amount ([2]; sampling period 0-1 h): 0.0386 mg
Bile: cumulative Mn^2+ excretion amount ([2]; sampling period 0-1 h): 0.0385 mg
Bile: cumulative Mn^2+ excretion rate ([2]; sampling period 0-1 h): 2.81%
Urine: Mn^2+ excretion amount ([2]; sampling period 0-1 h): 0.06995 mg
Urine: cumulative Mn^2+ excretion amount ([2]; sampling period 0-1 h): 0.06995 mg
Urine: cumulative Mn^2+ excretion rate ([2]; sampling period 0-1 h): 5.28%
Bile: Mn^2+ excretion amount ([2]; sampling period 1-2 h): 0.0865 mg
Bile: cumulative Mn^2+ excretion amount ([2]; sampling period 1-2 h): 0.1251 mg
Bile: cumulative Mn^2+ excretion rate ([2]; sampling period 1-2 h): 9.31%
Urine: Mn^2+ excretion amount ([2]; sampling period 1-2 h): 0.1582 mg
Urine: cumulative Mn^2+ excretion amount ([2]; sampling period 1-2 h): 0.2281 mg
Urine: cumulative Mn^2+ excretion rate ([2]; sampling period 1-2 h): 18.27%
Bile: Mn^2+ excretion amount ([2]; sampling period 2-3 h): 0.0518 mg
Bile: cumulative Mn^2+ excretion amount ([2]; sampling period 2-3 h): 0.1768 mg
Bile: cumulative Mn^2+ excretion rate ([2]; sampling period 2-3 h): 13.17%
Urine: Mn^2+ excretion amount ([2]; sampling period 2-3 h): 0.1094 mg
Urine: cumulative Mn^2+ excretion amount ([2]; sampling period 2-3 h): 0.3375 mg
Urine: cumulative Mn^2+ excretion rate ([2]; sampling period 2-3 h): 26.67%
Bile: Mn^2+ excretion amount ([2]; sampling period 3-4 h): 0.0333 mg
Bile: cumulative Mn^2+ excretion amount ([2]; sampling period 3-4 h): 0.2101 mg
Bile: cumulative Mn^2+ excretion rate ([2]; sampling period 3-4 h): 15.69%
Urine: Mn^2+ excretion amount ([2]; sampling period 3-4 h): 0.02084 mg
Urine: cumulative Mn^2+ excretion amount ([2]; sampling period 3-4 h): 0.3399 mg
Urine: cumulative Mn^2+ excretion rate ([2]; sampling period 3-4 h): 26.71%
Bile: Mn^2+ excretion amount ([2]; sampling period 4-5 h): 0.043 mg
Bile: cumulative Mn^2+ excretion amount ([2]; sampling period 4-5 h): 0.2627 mg
Bile: cumulative Mn^2+ excretion rate ([2]; sampling period 4-5 h): 19.66%
Urine: Mn^2+ excretion amount ([2]; sampling period 4-5 h): 0.01213 mg
Urine: cumulative Mn^2+ excretion amount ([2]; sampling period 4-5 h): 0.3521 mg
Urine: cumulative Mn^2+ excretion rate ([2]; sampling period 4-5 h): 27.59%
Bile: Mn^2+ excretion amount ([2]; sampling period 5-6 h): 0.0318 mg
Bile: cumulative Mn^2+ excretion amount ([2]; sampling period 5-6 h): 0.2945 mg
Bile: cumulative Mn^2+ excretion rate ([2]; sampling period 5-6 h): 22.07%
Urine: Mn^2+ excretion amount ([2]; sampling period 5-6 h): 0.00387 mg
Urine: cumulative Mn^2+ excretion amount ([2]; sampling period 5-6 h): 0.3559 mg
Urine: cumulative Mn^2+ excretion rate ([2]; sampling period 5-6 h): 27.88%
Bile: Mn^2+ excretion amount ([2]; sampling period 6-7 h): 0.0265 mg
Bile: cumulative Mn^2+ excretion amount ([2]; sampling period 6-7 h): 0.3209 mg
Bile: cumulative Mn^2+ excretion rate ([2]; sampling period 6-7 h): 24.05%
Urine: Mn^2+ excretion amount ([2]; sampling period 6-7 h): 0.00284 mg
Urine: cumulative Mn^2+ excretion amount ([2]; sampling period 6-7 h): 0.3588 mg
Urine: cumulative Mn^2+ excretion rate ([2]; sampling period 6-7 h): 28.09%
Bile: Mn^2+ excretion amount ([2]; sampling period 7-8 h): 0.0219 mg
Bile: cumulative Mn^2+ excretion amount ([2]; sampling period 7-8 h): 0.3429 mg
Bile: cumulative Mn^2+ excretion rate ([2]; sampling period 7-8 h): 25.67%
Urine: Mn^2+ excretion amount ([2]; sampling period 7-8 h): 0.0018 mg
Urine: cumulative Mn^2+ excretion amount ([2]; sampling period 7-8 h): 0.3606 mg
Urine: cumulative Mn^2+ excretion rate ([2]; sampling period 7-8 h): 28.22%
Bile: Mn^2+ excretion amount ([2]; sampling period 8-9 h): 0.02 mg
Bile: cumulative Mn^2+ excretion amount ([2]; sampling period 8-9 h): 0.3684 mg
Bile: cumulative Mn^2+ excretion rate ([2]; sampling period 8-9 h): 27.03%
Urine: Mn^2+ excretion amount ([2]; sampling period 8-9 h): 0.00083 mg
Urine: cumulative Mn^2+ excretion amount ([2]; sampling period 8-9 h): 0.3614 mg
Urine: cumulative Mn^2+ excretion rate ([2]; sampling period 8-9 h): 28.28%
Bile: Mn^2+ excretion amount ([2]; sampling period 9-10 h): 0.0179 mg
Bile: cumulative Mn^2+ excretion amount ([2]; sampling period 9-10 h): 0.3859 mg
Bile: cumulative Mn^2+ excretion rate ([2]; sampling period 9-10 h): 29.97%
Urine: Mn^2+ excretion amount ([2]; sampling period 9-10 h): 0.00061 mg
Urine: cumulative Mn^2+ excretion amount ([2]; sampling period 9-10 h): 0.362 mg
Urine: cumulative Mn^2+ excretion rate ([2]; sampling period 9-10 h): 28.33%
excretion route ([2]; rats): mainly excreted through liver and kidney
time course of excretion in urine and bile ([2]; rats): mainly in urine at the early stage and then in bile
excreted in liver and kidney ([2]; rats, within 600 min): about 60%
share of liver and kidney in excretion ([2]; rats, within 600 min): half and half
excretion seen by imaging [3]: could be excreted through the kidneys and intestines
liver enhancement [3]: obvious and continuous
passage through the blood-brain barrier [3]: could not pass through the normal blood-brain barrier
